Among the data in ChEMBL document CHEMBL4602614, “Design, synthesis and cholinesterase inhibitory activity of novel spiropyrrolidine tethered imidazole heterocyclic hybrids” (Bioorg Med Chem Lett, 2020) are IC50 values, retold here.

The target of one assay is Cholinesterase (Homo sapiens, UniProt P06276). Kind of assay: Inhibition of BChE (unknown origin).
A further assay has as its target Acetylcholinesterase (Homo sapiens, UniProt P22303). Kind of assay: Inhibition of AChE (unknown origin).

Sequence of Acetylcholinesterase (P22303 whole entry): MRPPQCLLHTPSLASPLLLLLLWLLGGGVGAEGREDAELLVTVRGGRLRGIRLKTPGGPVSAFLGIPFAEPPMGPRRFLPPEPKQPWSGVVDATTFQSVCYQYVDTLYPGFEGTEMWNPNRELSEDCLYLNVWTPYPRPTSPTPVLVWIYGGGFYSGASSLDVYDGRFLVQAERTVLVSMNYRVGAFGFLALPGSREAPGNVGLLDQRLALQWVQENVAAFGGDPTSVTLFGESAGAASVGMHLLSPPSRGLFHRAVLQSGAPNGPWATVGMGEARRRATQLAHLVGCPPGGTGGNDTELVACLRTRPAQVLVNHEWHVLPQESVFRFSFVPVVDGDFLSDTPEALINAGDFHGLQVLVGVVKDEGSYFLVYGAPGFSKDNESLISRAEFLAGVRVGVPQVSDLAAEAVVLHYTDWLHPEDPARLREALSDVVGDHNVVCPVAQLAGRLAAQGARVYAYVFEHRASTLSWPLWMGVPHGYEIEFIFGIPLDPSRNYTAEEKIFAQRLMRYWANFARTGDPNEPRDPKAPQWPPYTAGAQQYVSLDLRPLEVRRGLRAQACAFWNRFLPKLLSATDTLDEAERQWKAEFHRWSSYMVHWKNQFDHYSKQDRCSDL
Sequence of Cholinesterase (P06276 whole entry): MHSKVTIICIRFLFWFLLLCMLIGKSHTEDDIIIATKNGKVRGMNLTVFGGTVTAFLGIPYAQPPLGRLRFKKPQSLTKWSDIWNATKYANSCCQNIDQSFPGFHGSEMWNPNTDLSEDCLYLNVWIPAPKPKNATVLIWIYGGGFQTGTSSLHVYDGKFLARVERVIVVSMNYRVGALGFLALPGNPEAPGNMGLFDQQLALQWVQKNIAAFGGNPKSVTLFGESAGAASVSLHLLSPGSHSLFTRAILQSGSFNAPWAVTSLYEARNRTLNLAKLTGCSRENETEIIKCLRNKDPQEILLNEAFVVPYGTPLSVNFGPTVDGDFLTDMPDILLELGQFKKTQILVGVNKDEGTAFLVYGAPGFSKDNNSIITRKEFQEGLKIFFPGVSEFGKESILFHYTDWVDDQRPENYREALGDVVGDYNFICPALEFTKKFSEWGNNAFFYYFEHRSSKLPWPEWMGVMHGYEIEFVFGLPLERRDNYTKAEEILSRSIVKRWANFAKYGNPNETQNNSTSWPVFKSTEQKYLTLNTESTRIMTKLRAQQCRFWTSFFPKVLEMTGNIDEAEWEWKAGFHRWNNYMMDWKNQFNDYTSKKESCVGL

With `Cc1cccc(C2C([N+](=O)[O-])C(Cc3c[nH]cn3)NC23c2ccccc2-c2nc4ccccc4nc23)c1` (configuration not stated), the values for the IC50 at Cholinesterase and against Acetylcholinesterase were 13.6 µM and 7.8 µM, respectively.

Regarding `COc1cccc(C2C([N+](=O)[O-])C(Cc3c[nH]cn3)NC23c2ccccc2-c2nc4ccccc4nc23)c1` (configuration not stated), the IC50 (usually the midpoint of a concentration-inhibition curve) was 14.7 µM at Cholinesterase and 9.2 µM on Acetylcholinesterase.

`Cc1ccccc1C1C([N+](=O)[O-])C(Cc2c[nH]cn2)NC12c1ccccc1-c1nc3ccccc3nc12` (configuration not stated): the IC50 worked out at 13.8 µM against Cholinesterase and 10 µM against Acetylcholinesterase.

As to `O=[N+]([O-])C1C(Cc2c[nH]cn2)NC2(c3ccccc3-c3nc4ccccc4nc32)C1c1ccco1` (configuration not stated), the IC50 at Cholinesterase turned out to be 22.3 µM; on Acetylcholinesterase it was 14.2 µM.

For `COc1ccccc1C1C([N+](=O)[O-])C(Cc2c[nH]cn2)NC12c1ccccc1-c1nc3ccccc3nc12` (configuration not stated), the IC50 against Cholinesterase was determined as 14.2 µM; at Acetylcholinesterase, 5.22 µM.

For `O=[N+]([O-])C1C(Cc2c[nH]cn2)NC2(c3ccccc3-c3nc4ccccc4nc32)C1c1ccccc1` (configuration not stated), the IC50 on Cholinesterase came out at 15.6 µM; against Acetylcholinesterase, 11.8 µM.

Turning to `O=[N+]([O-])C1C(Cc2c[nH]cn2)NC2(c3ccccc3-c3nc4ccccc4nc32)C1c1ccc(Br)cc1` (configuration not stated), the IC50 against Cholinesterase amounted to 26.6 µM; on Acetylcholinesterase it was 16.2 µM.

Take `O=[N+]([O-])C1C(Cc2c[nH]cn2)NC2(c3ccccc3-c3nc4ccccc4nc32)C1c1ccc(Cl)cc1` (configuration not stated): the IC50 on Cholinesterase came out at 21.6 µM; against Acetylcholinesterase it was 18.2 µM.

As for `O=[N+]([O-])C1C(Cc2c[nH]cn2)NC2(c3ccccc3-c3nc4ccccc4nc32)C1c1ccccn1` (configuration not stated), the IC50 is 24.3 µM against Cholinesterase and 17 µM against Acetylcholinesterase.

For `COc1ccc(C2C([N+](=O)[O-])C(Cc3c[nH]cn3)NC23c2ccccc2-c2nc4ccccc4nc23)cc1` (configuration not stated), the IC50 against Cholinesterase stood at 11.5 µM; on Acetylcholinesterase, 2.05 µM.

Regarding `Cc1ccc(C2C([N+](=O)[O-])C(Cc3c[nH]cn3)NC23c2ccccc2-c2nc4ccccc4nc23)cc1` (configuration not stated), the IC50 against Cholinesterase was found to be 12.4 µM; against Acetylcholinesterase, 2.02 µM.
